Assay results: patent US10919891B2, “Heterocyclic compound” (TAKEDA PHARMACEUTICAL COMPANY LIMITED, priority 2017, dated 2021)

Tests used:
CYP3A = assay: CYP Induction (CYP3A activity in cryopreserved hepatocytes, P450-Glo CYP3A4 assay); type: in vitro ADME; settings: % of positive control (inducibility by 10 μmol/L rifampicin = 100%); hepatocytes treated 3 days
Procedure: Cryopreserved hepatocytes were thawed in a culture medium (In VitroGRO™ CP Medium, Celsis In Vitro Technologies, U.S.A.), and the resultant was added to BioCoat™ Matrigel® Matrix Thin-Layer 96 well (Becton, Dickinson and Company, U.S.A.) at a concentration of 40,000 cells/well. After culturing for 24 hours, the culture medium was removed, and replaced with an incubation medium (In VitroGRO™, HI Medium with Torpedo Antibiotic Mix, Celsis In Vitro Technologies, U.S.A.). Cells were cultured for an additional 3 days. The medium was removed on day 4, and the remained cells were treated in the induction medium containing a test compound for 3 days in the presence or absence of 10 μmol/L rifampicin. The induction medium was replaced every day. The test compound addition wells in the presence of 10 μmol/L rifampicin were used to evaluate the inhibitory effect of the test compound on the inducibility of the CYP3A activity by rifampicin. The CYP3A activity was evaluated by measuring luciferin generating amount after the addition of 2 μmol/L luciferin-IPA using IPA P450-Glo™ CYP3A4 assay systems (Promega Corporation, U.S.A.). All cultures were carried out under a humidified environment at 37° C., 5% CO2. The inducibility by rifampicin was defines as 100%, and the inducibility of the test compound (% of positive control) was calculated from the following equation: [(luciferin fluorescence intensity in the absence of rifampicin and the presence of test compound)−(luciferin fluorescence intensity in the absence of rifampicin and test compound)/(luciferin fluorescence intensity in the presence of rifampicin and the absence of test compound)−(Luciferin fluorescence intensity in the absence of rifampicin and test compound)]×100.

CYP3A4 = molecular target: T1, CYP3A4 (Homo sapiens, UniProt P08684); assay: CYP3A4 TDI (human liver microsomes, testosterone 6β-hydroxylation); type: in vitro ADME; settings: test compound 30 μM, 60 min vs 0 min preincubation with NADPH, 37° C.
T1 construct: Human liver microsomes purchased from XenoTech, LLC (Lenexa, Kans.) was used; tissue XenoTech, LLC; host or cells: human liver microsomes
T1 sequence (P08684 whole entry): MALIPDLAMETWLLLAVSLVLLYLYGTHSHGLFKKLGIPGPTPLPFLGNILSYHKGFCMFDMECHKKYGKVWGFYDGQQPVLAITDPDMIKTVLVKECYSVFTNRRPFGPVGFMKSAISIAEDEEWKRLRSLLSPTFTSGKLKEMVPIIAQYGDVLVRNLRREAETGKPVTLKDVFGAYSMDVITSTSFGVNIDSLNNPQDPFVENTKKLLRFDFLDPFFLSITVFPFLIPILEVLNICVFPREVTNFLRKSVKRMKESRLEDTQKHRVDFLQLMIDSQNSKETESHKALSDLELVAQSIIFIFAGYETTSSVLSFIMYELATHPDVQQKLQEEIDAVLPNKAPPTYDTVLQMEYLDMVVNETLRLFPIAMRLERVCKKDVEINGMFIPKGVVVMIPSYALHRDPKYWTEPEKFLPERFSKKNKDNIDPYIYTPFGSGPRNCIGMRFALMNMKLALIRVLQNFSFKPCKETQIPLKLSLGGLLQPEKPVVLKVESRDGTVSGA
Procedure: Human liver microsomes purchased from XenoTech, LLC (Lenexa, Kans.) was used. Test compounds were dissolved in acetonitrile, acetonitrile/methanol (1:1, v/v) or DMSO/acetonitrile (1:4, v/v). To a human liver microsomes solution adjusted with phosphate buffer (pH 7.4), the test compound solution was added to obtain a human liver microsomes reaction solution having the test compound concentration of 30 μM. To the human liver microsome reaction solution, NADPH production system was added, and the mixture was preincubated at 37° C. for 0 minutes or 60 minutes. After the preincubation, probe substrate testosterone was added, and testosterone metabolite 6β-hydroxytestosterone was analyzed by LC/MS/MS to evaluate CYP3A4 enzymatic activity.
The enzyme activity (% of control) at each preincubation point was calculated from the following equation: % of control=[(activity of test compound addition group)/(activity of test compound non-addition group)]×100.
The remaining activity (% remaining) after 60 minutes of preincubation was calculated from the following equation: Remaining activity (%)=[activity after 60 minutes (% of control60 min)]/[activity after 0 minutes (% of control0 min)]×100.

CC1(C)C[C@H](c2ccccc2)Nc2c(C(=O)N3C[C@@H]4C[C@]4(c4ccc(Cl)c(Cl)c4)C3)cnn21 [Example 1, ((1S,5R)-1-(3,4-Dichlorophenyl)-3-azabicyclo[3.1.0]hex-3-yl)((5R)-7,7-dimethyl-5-phenyl-4,5,6,7-tetrahydropyrazolo[1,5-a]pyrimidin-3-yl)methanone]
Inducibility (%) (CYP3A): 4.9% | Remaining Activity (%) (CYP3A4): 86.0%
